Test results published in PubChem BioAssay AID248 (DTP/NCI, 2004).
Where “and” joins values, the source holds several entries; their conditions need not be identical. Equal entries are not always repeated. Inconclusive results and toxic doses are left out. Cut-off read from the data, not from the text of the source: active = T/C of 150% or more; inactive = T/C below 125%.

System: L1210 leukemia ip in BDF1 mice, survival T/C
Test: NCI In Vivo Anticancer Drug Screen. Data for tumor model L1210 Leukemia (intraperitoneal) in B6D2F1 (BDF1) mice
Conditions: endpoint: mean survival time, higher = longer survival
Method in brief: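 Read-out is survival time, reported as the treated-group measurement over the vehicle-control measurement.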

[1] = dose: 100.0 mg/kg/injection, schedule: Q04DX003 (ip), vehicle: Klucel (hydroxypropylcellulose) (HPC)
[2] = dose: 200.0 mg/kg/injection, schedule: Q04DX003 (ip), vehicle: Klucel (hydroxypropylcellulose) (HPC)
[3] = dose: 400.0 mg/kg/injection, schedule: Q04DX003 (ip), vehicle: Klucel (hydroxypropylcellulose) (HPC)
[4] = dose: 50.0 mg/kg/injection, schedule: Q01DX009 (ip), vehicle: Klucel (hydroxypropylcellulose) (HPC)
[5] = dose: 100.0 mg/kg/injection, schedule: Q01DX009 (ip), vehicle: Klucel (hydroxypropylcellulose) (HPC)
[6] = dose: 200.0 mg/kg/injection, schedule: Q01DX009 (ip), vehicle: Klucel (hydroxypropylcellulose) (HPC)
[7] = dose: 100.0 mg/kg/injection, schedule: Q04DX002 (ip), vehicle: Klucel (hydroxypropylcellulose) (HPC)
[8] = dose: 200.0 mg/kg/injection, schedule: Q04DX002 (ip), vehicle: Klucel (hydroxypropylcellulose) (HPC)
[9] = dose: 100.0 mg/kg/injection, schedule: Q01DX001 (ip), vehicle: saline
[10] = dose: 200.0 mg/kg/injection, schedule: Q01DX001 (ip), vehicle: saline
[11] = dose: 400.0 mg/kg/injection, schedule: Q01DX001 (ip), vehicle: saline
[12] = dose: 25.0 mg/kg/injection, schedule: Q01DX009 (ip), vehicle: Klucel (hydroxypropylcellulose) (HPC)
[13] = dose: 100.0 mg/kg/injection, schedule: Q01DX009 (ip), vehicle: saline
[14] = dose: 100.0 mg/kg/injection, schedule: Q04DX003 (ip), vehicle: saline
[15] = dose: 200.0 mg/kg/injection, schedule: Q01DX009 (ip), vehicle: saline
[16] = dose: 200.0 mg/kg/injection, schedule: Q04DX003 (ip), vehicle: saline
[17] = dose: 400.0 mg/kg/injection, schedule: Q04DX003 (ip), vehicle: saline
[18] = dose: 400.0 mg/kg/injection, schedule: Q04DX002 (ip), vehicle: Klucel (hydroxypropylcellulose) (HPC)
[19] = dose: 400.0 mg/kg/injection, schedule: Q01DX009 (ip), vehicle: Klucel (hydroxypropylcellulose) (HPC)

Measured: T/C

CCCCCCCCCCOc1ccc(C=O)c(OC)c1
inactive: [1] 98 % of control | [2] 93 % of control | [3] 91 % of control

CCOC(=O)N1CCC2C(CC3CC2C3(C)C)N1C(=O)OCC (stereo not given)
inactive: [4] 103 % of control | [5] 101 % of control | [1] 97 % of control | [6] 101 % of control | [2] 101 % of control | [3] 99 % of control

O=C(O)c1cc(Br)cc(Cl)c1Cl
inactive: [7] 100 % of control | [8] 103 % of control

CC(Oc1nc2c(c(=O)n(C)c(=O)n2C)n1C)C1CCCCC1 (stereo not given)
inactive: dose: 50.0 mg/kg/injection, schedule: Q01DX001 (ip), vehicle: other 95 % of control | dose: 100.0 mg/kg/injection, schedule: Q01DX001 (ip), vehicle: other 98 % of control | dose: 200.0 mg/kg/injection, schedule: Q01DX001 (ip), vehicle: other 93 % of control

NC(=S)N/N=C/c1ccccc1S(=O)(=O)O
inactive: [9] 96 % of control | [10] 94 % of control | [11] 102 % of control

COc1ccccc1N1CCN(CCc2c[nH]c3cc4c(cc23)OCO4)CC1
inactive: dose: 3.12 mg/kg/injection, schedule: Q01DX009 (ip), vehicle: Klucel (hydroxypropylcellulose) (HPC) 103 % of control | dose: 6.25 mg/kg/injection, schedule: Q01DX009 (ip), vehicle: Klucel (hydroxypropylcellulose) (HPC) 97 % of control and 110 % of control | dose: 12.5 mg/kg/injection, schedule: Q01DX009 (ip), vehicle: Klucel (hydroxypropylcellulose) (HPC) 106 % of control and 111 % of control and 120 % of control | dose: 12.5 mg/kg/injection, schedule: Q04DX003 (ip), vehicle: Klucel (hydroxypropylcellulose) (HPC) 94 % of control | [12] 89 % of control | dose: 25.0 mg/kg/injection, schedule: Q01DX015 (ip), vehicle: carboxymethylcellulose (CMC) 102 % of control and 106 % of control | dose: 25.0 mg/kg/injection, schedule: Q04DX003 (ip), vehicle: Klucel (hydroxypropylcellulose) (HPC) 102 % of control | dose: 50.0 mg/kg/injection, schedule: Q01DX015 (ip), vehicle: carboxymethylcellulose (CMC) 104 % of control | dose: 50.0 mg/kg/injection, schedule: Q04DX003 (ip), vehicle: Klucel (hydroxypropylcellulose) (HPC) 105 % of control | [5] 112 % of control | dose: 100.0 mg/kg/injection, schedule: Q01DX015 (ip), vehicle: carboxymethylcellulose (CMC) 118 % of control | [1] 102 % of control

Cc1ccc(C)c(NC(=O)Oc2ccc(C(=O)OCc3ccccc3)cc2)c1
inactive: [12] 100 % of control | [4] 88 % of control | [5] 93 % of control and 104 % of control | [1] 107 % of control | [6] 95 % of control | [2] 98 % of control | [3] 101 % of control

C/C=C/C(=O)OC1CC2OC3C=C(C)C4OC4C3(C)C1(C)C21CO1 (stereo not given)
inactive: dose: 50.0 mg/kg/injection, schedule: Q01DX009 (ip), vehicle: saline 96 % of control | [13] 96 % of control | [14] 90 % of control | [15] 108 % of control | [16] 92 % of control | [17] 88 % of control

COc1ccc2c(c1)C(Br)N(S(=O)(=O)c1ccc(C)cc1)CCC2=O (stereo not given)
inactive: dose: 25.0 mg/kg/injection, schedule: Q01DX009 (ip), vehicle: other 97 % of control | dose: 50.0 mg/kg/injection, schedule: Q01DX009 (ip), vehicle: other 95 % of control | dose: 100.0 mg/kg/injection, schedule: Q01DX009 (ip), vehicle: other 92 % of control | dose: 100.0 mg/kg/injection, schedule: Q04DX003 (ip), vehicle: other 92 % of control | dose: 200.0 mg/kg/injection, schedule: Q01DX009 (ip), vehicle: other 104 % of control | dose: 200.0 mg/kg/injection, schedule: Q04DX003 (ip), vehicle: other 97 % of control | dose: 400.0 mg/kg/injection, schedule: Q04DX003 (ip), vehicle: other 89 % of control

CCCCS(=O)(=O)CCN1C(=O)C2C3CCC(O3)C2C1=O (stereo not given)
inactive: [7] 98 % of control | [8] 123 % of control | [18] 107 % of control

CC(=O)Nc1ccc(F)c(Cl)c1F
inactive: [7] 121 % of control | [8] 105 % of control | [18] 102 % of control

O=C(OCCOc1ccccc1)c1ccc([N+](=O)[O-])cc1
inactive: [9] 100 % of control | [10] 98 % of control | [11] 116 % of control

CC(CCF)C(N)C(=O)O (stereo not given)
inactive: dose: 3.0 mg/kg/injection, schedule: Q01DX009 (ip), vehicle: saline 98 % of control | dose: 6.0 mg/kg/injection, schedule: Q01DX009 (ip), vehicle: saline 100 % of control | dose: 10.0 mg/kg/injection, schedule: Q01DX001 (ip), vehicle: saline 91 % of control | dose: 12.0 mg/kg/injection, schedule: Q01DX009 (ip), vehicle: saline 102 % of control | dose: 12.5 mg/kg/injection, schedule: Q01DX009 (ip), vehicle: saline 100 % of control | dose: 19.0 mg/kg/injection, schedule: Q01DX001 (ip), vehicle: saline 95 % of control | dose: 37.5 mg/kg/injection, schedule: Q01DX001 (ip), vehicle: saline 113 % of control | dose: 38.0 mg/kg/injection, schedule: Q01DX001 (ip), vehicle: saline 91 % of control

COc1ccc(Cl)cc1NC(=O)Oc1ccc(NC(C)=O)cc1
inactive: [5] 96 % of control | [6] 102 % of control | [19] 98 % of control

CC(C)(C1c2ccccc2NC(=O)c2ccccc21)[N+](=O)[O-] (stereo not given)
inactive: dose: 100.0 mg/kg/injection, schedule: Q04DX003 (ip), vehicle: saline with Tween-80 101 % of control | dose: 200.0 mg/kg/injection, schedule: Q04DX003 (ip), vehicle: saline with Tween-80 94 % of control

Cn1nnnc1N
inactive: [5] 96 % of control | [13] 98 % of control | [14] 103 % of control | [6] 100 % of control | [15] 96 % of control | [16] 105 % of control | [19] 95 % of control | dose: 400.0 mg/kg/injection, schedule: Q01DX009 (ip), vehicle: saline 89 % of control | [17] 100 % of control
